In patent US9622997B2, “Methods for treating insomnia” (Lynn Health Science Institute, Inc., priority 2012, dated 2017):

System: individuals with complaints of nighttime heartburn or regurgitation
Assay: Cross-over trial with esophageal pH monitoring combined with overnight PSG after reflux-provoking meal
Type: in vivo, human
Text: Individuals aged 18-65 (inclusive) with complaints of nighttime heartburn or regurgitation at least twice per week and a Carlsson GERD score of at least 5 were invited to participate. […] Participants were also excluded if they took sedating medications on a regular basis (PRN use was allowed if they agreed to abstain from use on the nights in the sleep laboratory). Participants were recruited from a database of patients with heartburn complaints. These participants had previously expressed interest in participating in medical research studies at our facility. Advertising was not utilized in recruitment.
Esophageal pH monitoring was performed using an antimony pH catheter (Sandhill Scientific, Highlands Ranch, Colo., USA) placed in the distal esophagus. The catheter was inserted into the esophagus via the nares and positioned so that the pH electrode was 5 cm above the manometrically determined LES. Prior to insertion the pH electrode was calibrated against solutions of pH 4 and 7. The catheter was connected to an acid reflux monitor, which allowed continuous recordings of esophageal pH for a 24-hour period as well as simultaneous pH monitoring during PSG (ZepHr, Sandhill Scientific).
Data were analyzed using BioVIEW Analysis software (Sandhill Scientific). This software provides a report of upright, supine, and total acid contact time (ACT), which were used as outcome measures in the study.
Overnight polysomnography included monitoring of electroencephalography, electroocculography, submental electromyography, airflow (thermistor), electrocardiogram and SaO2. Distal and proximal pH was also recorded via the polysomnography system. […] “Lights Out” occurred at the patient's usual bedtime. Time in bed was standardized to 8 hours. For the purposes of this study, significant sleep apnea was defined as an apnea hypopnea index (AHI) of at least 10 events per hour of sleep. Individuals with an AHI of 10 or greater on the first sleep study were excluded from the study. Likewise, individuals with a periodic limb movement arousal index (PLMAI) of 10 or greater were excluded.
A reflux event was defined as a period of at least 30 consecutive seconds with pH readings below 4. A reflux event ended when the pH rose to 4 or greater for a period of at least 30 seconds. Reflux events were only counted if they occurred after PSG documented sleep onset had occurred. These analyses were done by hand in order to determine which events occurred during sleep and which occurred during wake. […]
The second and third visits were scheduled one to two weeks after the initial visit, and were separated by a washout period of approximately one week. […] The order of medication was determined by a computer-generated list of random sequences. […]

NCC(CC(=O)O)c1ccc(Cl)cc1 (stereo not shown) [Baclofen, 4-amino-3-(4-chlorophenyl)-butanoic acid]
adverse events (baclofen 40 mg): No adverse events were documented
reduction in number of distal reflux events occurring after PSG-determined sleep onset compared to placebo (baclofen 40 mg 90 minutes before bed, n=21, p<0.05): 56%
reflux events associated with wakefulness and with sleep, compared to placebo (baclofen 40 mg, FIG. 1C): reduced reflux events
decrease in recumbent ACT (acid contact time) versus placebo (baclofen 40 mg, not statistically significant): approximately 50%
